Measurements from ChEMBL document CHEMBL1909046, “DrugMatrix in vitro pharmacology data”.

How the values were obtained:
[1] = molecular target: Prostaglandin G/H synthase 1 (Homo sapiens, UniProt P23219); assay: biochemical; format: tissue-based, Platelet; conditions: platelet;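 also: inhibition of COX-1 enzyme activity, with arachidonic acid supplied as substrate; in other assays of this panel Not Active means under 50% inhibition at 10 µM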
[2] = molecular target: C-C chemokine receptor type 2 (Homo sapiens, UniProt P41597); format: cell membranes, CHO-K1, Membrane; conditions: cho-k1; also: in other assays of this panel Not Active means under 50% inhibition at 10 µM
[3] = DRUGMATRIX: Serotonin (5-Hydroxytryptamine) 5-HT3 radioligand binding (ligand: [3H] GR-65630); format: cell membranes, Membrane; conditions: hek293, Not Active = under 50% inhibition at 10 µM
Thromboxane-A synthase = molecular target: T1, Thromboxane-A synthase (Homo sapiens, UniProt P24557); assay: biochemical; format: tissue-based, Platelet; conditions: platelet;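 also: enzyme inhibition assay with PGH2 supplied as substrate; in other assays of this panel Not Active means under 50% inhibition at 10 µM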
T1 sequence (P24557 whole entry): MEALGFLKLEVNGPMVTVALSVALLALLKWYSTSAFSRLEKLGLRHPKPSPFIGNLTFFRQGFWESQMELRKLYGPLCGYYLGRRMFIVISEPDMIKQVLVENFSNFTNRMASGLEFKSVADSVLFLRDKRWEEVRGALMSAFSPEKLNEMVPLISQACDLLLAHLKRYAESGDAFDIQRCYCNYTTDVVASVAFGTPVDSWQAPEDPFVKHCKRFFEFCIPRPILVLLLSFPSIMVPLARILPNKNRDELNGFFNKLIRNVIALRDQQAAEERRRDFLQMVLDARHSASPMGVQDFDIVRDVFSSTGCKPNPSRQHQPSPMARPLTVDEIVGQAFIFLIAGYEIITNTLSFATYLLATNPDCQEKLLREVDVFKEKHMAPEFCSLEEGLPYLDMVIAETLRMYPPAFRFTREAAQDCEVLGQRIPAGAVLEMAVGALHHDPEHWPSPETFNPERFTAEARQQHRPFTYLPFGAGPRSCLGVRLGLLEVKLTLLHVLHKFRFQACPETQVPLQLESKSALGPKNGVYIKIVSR

Endothelin-1 receptor = molecular target: T2, Endothelin-1 receptor (Homo sapiens, UniProt P25101); format: cell membranes, CHO-K1, Membrane; conditions: cho-k1; also: in other assays of this panel Not Active means under 50% inhibition at 10 µM
T2 sequence (P25101 whole entry): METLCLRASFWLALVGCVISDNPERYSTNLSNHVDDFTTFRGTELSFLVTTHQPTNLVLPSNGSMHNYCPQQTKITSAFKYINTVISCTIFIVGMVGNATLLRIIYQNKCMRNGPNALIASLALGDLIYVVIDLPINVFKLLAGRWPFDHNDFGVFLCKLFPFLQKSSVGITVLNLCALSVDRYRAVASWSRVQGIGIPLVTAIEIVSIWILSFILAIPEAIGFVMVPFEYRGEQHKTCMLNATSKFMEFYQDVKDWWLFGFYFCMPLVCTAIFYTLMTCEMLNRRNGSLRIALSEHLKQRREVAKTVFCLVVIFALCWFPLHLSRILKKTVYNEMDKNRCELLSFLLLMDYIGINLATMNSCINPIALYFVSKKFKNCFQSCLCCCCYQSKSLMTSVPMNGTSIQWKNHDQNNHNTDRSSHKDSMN

[4] = molecular target: Sodium-dependent dopamine transporter (Homo sapiens, UniProt Q01959); assay: DRUGMATRIX: Dopamine Transporter radioligand binding (ligand: [125I] RTI-55); format: cell membranes, CHO-K1, Membrane; conditions: Not Active = under 50% inhibition at 10 µM
Chain of Sodium-dependent dopamine transporter (Q01959 whole entry): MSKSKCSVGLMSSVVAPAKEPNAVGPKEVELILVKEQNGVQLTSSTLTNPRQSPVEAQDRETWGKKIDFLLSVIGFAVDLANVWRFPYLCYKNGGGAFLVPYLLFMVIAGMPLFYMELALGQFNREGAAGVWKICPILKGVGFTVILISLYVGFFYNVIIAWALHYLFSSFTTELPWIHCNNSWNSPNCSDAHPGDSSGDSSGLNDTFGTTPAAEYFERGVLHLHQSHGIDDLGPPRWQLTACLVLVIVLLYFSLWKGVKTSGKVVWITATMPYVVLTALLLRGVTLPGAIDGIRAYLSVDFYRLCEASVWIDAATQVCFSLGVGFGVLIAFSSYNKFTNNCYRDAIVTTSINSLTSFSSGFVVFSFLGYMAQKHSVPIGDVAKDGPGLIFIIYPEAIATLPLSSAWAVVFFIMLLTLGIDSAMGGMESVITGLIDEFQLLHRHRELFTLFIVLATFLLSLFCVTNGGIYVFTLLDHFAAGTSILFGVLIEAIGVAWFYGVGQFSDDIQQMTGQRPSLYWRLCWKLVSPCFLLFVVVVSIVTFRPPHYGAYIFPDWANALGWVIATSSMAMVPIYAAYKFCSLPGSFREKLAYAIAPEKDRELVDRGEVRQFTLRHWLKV

Chain of Prostaglandin G/H synthase 1 (P23219 whole entry): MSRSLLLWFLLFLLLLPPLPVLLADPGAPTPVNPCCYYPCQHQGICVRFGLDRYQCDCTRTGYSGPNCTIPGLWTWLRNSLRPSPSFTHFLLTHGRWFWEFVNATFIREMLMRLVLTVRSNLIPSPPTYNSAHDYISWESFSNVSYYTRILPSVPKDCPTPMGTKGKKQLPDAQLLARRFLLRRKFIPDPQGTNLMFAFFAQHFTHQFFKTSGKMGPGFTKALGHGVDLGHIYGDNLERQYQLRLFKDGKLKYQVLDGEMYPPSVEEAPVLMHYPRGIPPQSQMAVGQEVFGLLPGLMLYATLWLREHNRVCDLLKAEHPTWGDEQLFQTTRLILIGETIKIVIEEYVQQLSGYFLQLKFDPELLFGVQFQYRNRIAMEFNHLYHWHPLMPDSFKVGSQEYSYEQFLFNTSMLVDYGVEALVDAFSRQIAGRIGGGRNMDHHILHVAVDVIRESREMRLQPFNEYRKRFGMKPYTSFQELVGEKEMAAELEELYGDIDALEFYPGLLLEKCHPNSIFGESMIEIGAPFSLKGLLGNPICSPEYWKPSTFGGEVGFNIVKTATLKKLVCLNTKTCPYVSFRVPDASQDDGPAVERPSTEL
Chain of C-C chemokine receptor type 2 (P41597 whole entry): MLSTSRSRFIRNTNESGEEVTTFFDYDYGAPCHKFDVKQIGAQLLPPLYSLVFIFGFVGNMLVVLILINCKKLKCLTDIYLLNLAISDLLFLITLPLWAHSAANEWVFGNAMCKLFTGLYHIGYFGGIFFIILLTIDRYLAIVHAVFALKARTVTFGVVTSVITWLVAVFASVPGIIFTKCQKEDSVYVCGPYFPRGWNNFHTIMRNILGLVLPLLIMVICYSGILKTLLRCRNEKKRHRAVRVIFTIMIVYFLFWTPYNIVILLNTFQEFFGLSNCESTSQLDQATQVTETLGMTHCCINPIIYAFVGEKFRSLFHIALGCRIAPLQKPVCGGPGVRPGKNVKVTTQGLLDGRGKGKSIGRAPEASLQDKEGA

| Compound | IC50 [1] | IC50 [2] | IC50 [3] | Ki [3] | IC50 (Thromboxane-A synthase) | IC50 (Endothelin-1 receptor) | IC50 ([4]; cho-k1) | IC50 ([3]; read-out: IC50) [µM] | Ki ([3]; read-out: Ki) [µM] | IC50 ([4]; read-out: IC50) [µM] | Ki ([4]; read-out: Ki) [µM] |
| --- | --- | --- | --- | --- | --- | --- | --- | --- | --- | --- | --- |
| COc1cc2c3cc1Oc1cc(ccc1O)C[C@@H]1c4c(cc(OC)c(O)c4Oc4ccc(cc4)C[C@@H]3N(C)CC2)CC[N+]1(C)C.[Cl-] | Not Active | Not Active | Not Active | Not Active | Not Active | Not Active | Not Active |  |  |  |  |
| O=C1CC[C@@H](N2C(=O)c3ccccc3C2=O)C(=O)N1 | Not Active | Not Active | Not Active | Not Active | Not Active | Not Active | Not Active |  |  |  |  |
| CN(C)c1nc(N(C)C)nc(N(C)C)n1 [ALTRETAMINE] | Not Active | Not Active | Not Active | Not Active | Not Active | Not Active | Not Active |  |  |  |  |
| CNCCc1ccccn1 [BETAHISTINE] | Not Active | Not Active | Not Active | Not Active | Not Active | Not Active | Not Active |  |  |  |  |
| CCCC1O[C@@H]2C[C@H]3[C@@H]4CCC5=CC(=O)C=C[C@]5(C)[C@H]4[C@@H](O)C[C@]3(C)[C@]2(C(=O)CO)O1 (some centres undefined) [BUDESONIDE] | Not Active | Not Active | Not Active | Not Active | Not Active | Not Active | Not Active |  |  |  |  |
| CC(NC(C)(C)C)C(=O)c1cccc(Cl)c1 (centres undefined) [BUPROPION] | Not Active | Not Active | Not Active | Not Active | Not Active | Not Active |  |  |  |  |  |
| C[C@H](CS)C(=O)N1CCC[C@H]1C(=O)O [CAPTOPRIL] | Not Active | Not Active | Not Active | Not Active | Not Active | Not Active | Not Active |  |  |  |  |
| CN(C)CCCN1c2ccccc2Sc2ccc(Cl)cc21 [CHLORPROMAZINE] | Not Active | Not Active |  |  | Not Active | Not Active |  | 7.37 | 1.66 |  |  |
| CC(C)(C)NCC(O)c1cc(Cl)c(N)c(Cl)c1 (centres undefined) [CLENBUTEROL] | Not Active | Not Active | Not Active | Not Active | Not Active | Not Active | Not Active |  |  |  |  |
| CC(C)(Oc1ccc(Cl)cc1)C(=O)O [CLOFIBRIC ACID] | Not Active | Not Active | Not Active | Not Active | Not Active | Not Active | Not Active |  |  |  |  |
| Clc1cccc(Cl)c1NC1=NCCN1 [CLONIDINE] | Not Active | Not Active | Not Active | Not Active | Not Active | Not Active | Not Active |  |  |  |  |
| O=c1oc2ccccc2c(O)c1Cc1c(O)c2ccccc2oc1=O [DICUMAROL] | Not Active | Not Active | Not Active | Not Active | Not Active | Not Active | Not Active |  |  |  |  |
| C[C@H]1O[C@@H](O[C@H]2[C@@H](O)C[C@H](O[C@H]3[C@@H](O)C[C@H](O[C@H]4CC[C@@]5(C)[C@H](CC[C@@H]6[C@@H]5C[C@@H](O)[C@]5(C)[C@@H](C7=CC(=O)OC7)CC[C@]65O)C4)O[C@@H]3C)O[C@@H]2C)C[C@H](O)[C@@H]1O [DIGOXIN] | Not Active | Not Active | Not Active | Not Active | Not Active | Not Active | Not Active |  |  |  |  |
| CC(=O)O[C@@]12CO[C@@H]1C[C@H](O)[C@@]1(C)C(=O)[C@H](O)C3=C(C)[C@@H](OC(=O)[C@H](O)[C@@H](NC(=O)OC(C)(C)C)c4ccccc4)C[C@@](O)([C@@H](OC(=O)c4ccccc4)[C@H]21)C3(C)C.O.O.O [DOCETAXEL] | Not Active | Not Active | Not Active | Not Active | Not Active | Not Active | Not Active |  |  |  |  |
| COc1cc2nc(N3CCN(C(=O)C4COc5ccccc5O4)CC3)nc(N)c2cc1OC (centres undefined) [DOXAZOSIN] | Not Active | Not Active | Not Active | Not Active | Not Active | Not Active |  |  |  |  |  |
| C[C@H]1c2cccc(O)c2C(=O)C2=C(O)[C@]3(O)C(=O)C(C(N)=O)=C(O)[C@@H](N(C)C)[C@@H]3[C@@H](O)[C@@H]21.O [DOXYCYCLINE] | Not Active | Not Active | Not Active | Not Active | Not Active | Not Active | Not Active |  |  |  |  |
| C[C@]12CC[C@@H]3c4ccc(O)cc4CC[C@H]3[C@@H]1CCC2=O [ESTRONE] | Not Active | Not Active | Not Active | Not Active | Not Active | Not Active | Not Active |  |  |  |  |
| O=c1[nH]c(=O)n([C@H]2C[C@H](O)[C@@H](CO)O2)cc1I [IDOXURIDINE] | Not Active | Not Active | Not Active | Not Active | Not Active | Not Active | Not Active |  |  |  |  |
| Nc1nc(N)nc(-c2cc(Cl)ccc2Cl)n1.O=C(O)/C=C\C(=O)O [IRSOGLADINE MALEATE] | Not Active | Not Active | Not Active | Not Active | Not Active | Not Active | Not Active |  |  |  |  |
| CCCCc1nc(Cl)c(CO)n1Cc1ccc(-c2ccccc2-c2nnn[nH]2)cc1 [LOSARTAN] | Not Active |  | Not Active | Not Active | Not Active | Not Active | Not Active |  |  |  |  |
| C[C@](N)(Cc1ccc(O)c(O)c1)C(=O)O [METHYLDOPA] | Not Active | Not Active | Not Active | Not Active | Not Active | Not Active | Not Active |  |  |  |  |
| Cc1ccccc1N1C(=O)c2cc(S(N)(=O)=O)c(Cl)cc2NC1C (centres undefined) [METOLAZONE] | Not Active | Not Active | Not Active | Not Active | Not Active | Not Active | Not Active |  |  |  |  |
| COCCc1ccc(OCC(O)CNC(C)C)cc1 (centres undefined) [METOPROLOL] | Not Active | Not Active | Not Active | Not Active | Not Active | Not Active | Not Active |  |  |  |  |
| NC1=NC(=O)C(c2ccccc2)O1 (centres undefined) [PEMOLINE] | Not Active | Not Active | Not Active | Not Active | Not Active | Not Active |  |  |  | 0.521 | 0.414 |
| CNNCc1ccc(C(=O)NC(C)C)cc1 [PROCARBAZINE] | Not Active | Not Active | Not Active | Not Active | Not Active | Not Active | Not Active |  |  |  |  |
| CN(C)CCCN1c2ccccc2Sc2ccccc21 [PROMAZINE] | Not Active | Not Active | Not Active | Not Active | Not Active | Not Active | Not Active |  |  |  |  |
